# Paper PMC3184174, “Pharmacological Blockade of TRPM8 Ion Channels Alters Cold and Cold Pain Responses in Mice” (PLoS ONE, 2011)
# How the values were obtained:
# TRPM8 [1] = biological target: T1, TRPM8 (Mus musculus, UniProt Q8R4D5); assay: whole-cell voltage clamp of menthol-evoked currents in mTRPM8-transfected HEK293T cells; also Fura-2 calcium imaging; type: cell-based
# TRPM8 [2] = biological target: T1, TRPM8; assay: whole-cell voltage clamp (V1/[…] shift with […] menthol) and Fura-2 calcium imaging ([…]) in mTRPM8-transfected HEK293T cells; type: cell-based
# T1 sequence (Q8R4D5 whole entry): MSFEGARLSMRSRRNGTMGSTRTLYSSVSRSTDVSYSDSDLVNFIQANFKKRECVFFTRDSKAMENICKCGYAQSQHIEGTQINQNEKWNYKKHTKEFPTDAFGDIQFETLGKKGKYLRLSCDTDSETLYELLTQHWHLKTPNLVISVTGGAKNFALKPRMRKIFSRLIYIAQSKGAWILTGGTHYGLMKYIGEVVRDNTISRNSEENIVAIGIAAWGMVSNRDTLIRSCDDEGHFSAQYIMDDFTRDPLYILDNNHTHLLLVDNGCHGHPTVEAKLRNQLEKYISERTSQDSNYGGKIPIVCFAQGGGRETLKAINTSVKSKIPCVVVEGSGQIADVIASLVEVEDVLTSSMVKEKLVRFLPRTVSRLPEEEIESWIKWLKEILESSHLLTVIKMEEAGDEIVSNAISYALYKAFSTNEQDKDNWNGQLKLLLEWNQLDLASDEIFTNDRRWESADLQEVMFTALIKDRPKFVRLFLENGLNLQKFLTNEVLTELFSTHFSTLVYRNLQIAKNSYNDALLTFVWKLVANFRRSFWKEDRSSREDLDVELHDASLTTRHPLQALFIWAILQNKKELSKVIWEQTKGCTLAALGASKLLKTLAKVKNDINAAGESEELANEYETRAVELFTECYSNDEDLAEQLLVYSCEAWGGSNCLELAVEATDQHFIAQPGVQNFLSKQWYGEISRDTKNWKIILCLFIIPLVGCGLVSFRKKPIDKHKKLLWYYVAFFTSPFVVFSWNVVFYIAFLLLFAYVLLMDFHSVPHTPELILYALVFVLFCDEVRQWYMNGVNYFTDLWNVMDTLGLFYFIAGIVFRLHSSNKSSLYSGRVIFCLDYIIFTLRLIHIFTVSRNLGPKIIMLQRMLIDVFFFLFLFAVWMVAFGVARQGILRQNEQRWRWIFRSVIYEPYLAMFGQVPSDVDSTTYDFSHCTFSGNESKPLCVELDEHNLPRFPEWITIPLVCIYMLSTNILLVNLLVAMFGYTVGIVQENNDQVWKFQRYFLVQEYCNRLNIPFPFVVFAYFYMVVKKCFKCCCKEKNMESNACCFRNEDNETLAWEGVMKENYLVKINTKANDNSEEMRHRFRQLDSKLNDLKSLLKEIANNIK
SMILES,IC50 (TRPM8 [1]) [nM],V1/2 shift with 1 mM menthol (TRPM8 [2]) [mV]
"COc1cc(CN(CCN)C(=O)OC(C)c2ccccc2)ccc1OCc1ccccc1 (centres unmarked) [PBMC, 1-phenylethyl-4-(benzyloxy)-3-methoxybenzyl(2-aminoethyl)carbamate]",0.4,
CC1CCC(C(C)C)C(O)C1 (centres unmarked) [menthol],,79.1±21.1
